Measured values taken from patent US7833513B2, “Treatment of Alzheimer's Disease” (Rhode Island Hospital, priority 2004, dated 2010).

How the values were obtained:
[1] = ic-STZ rat pup model: blood glucose, body and brain weight, pancreas and brain histopathology; assay type: in vivo, Long Evans rat
Method: Control rats were identically injected with sterile saline. […] Andican et al., Clin. Exp. Pharmacol. Physiol. 32:663 (2005); Saad et al., Arch. Toxicol. (2005); Srinivasan et al., Pharmacol. Res. 52:313 (2005); Karabatas et al., Pancreas 30:318 (2005); Mabley et al., Pancreas 28:E39 (2004). […] The injections were completed within 3 minutes and the needle was withdrawn slowly from the brain.
At the termination point of the experiment, the rats were weighed and then sacrificed by isofluorane inhalation. Blood was obtained by cardiac puncture to measure glucose concentration using the OneTouch Ultra Blood Glucose Meter (Lifescan, Inc). The pancreases were harvested and immersion fixed in Histofix (Amresco Corp, Solon, Ohio) for paraffin embedding. Fresh brains were weighed and then cut in the coronal plane to obtain a ˜3 mm thick slice that flanked the infundibulum. The 3-mm brain slice was snap frozen between two slabs of dry ice, and stored at −80° C. for later RNA and protein extractions. The residual tissue was immersion fixed (Histofix) and embedded in paraffin for histopathological study and immunohistochemical staining. In approximately 20% of the cases, the brains were weighed, immersion fixed whole, and then sectioned in the coronal plane along standardized landmarks for paraffin embedding and histopathological sectioning.
Paraffin-embedded histological sections of pancreas (5 μm thick) and brain (8 μm thick) were stained with hematoxylin and eosin (H&E) and examined for histopathological lesions, i.e., inflammation, necrosis, and islet cell degeneration. […] As negative controls for the immunostaining reactions, either the primary antibody was omitted or non-relevant monoclonal antibody to Hepatitis B virus was used in place of the relevant antibody.
Prior to immunostaining, the deparaffinized, re-hydrated tissue sections were sequentially treated with 0.1 mg/ml saponin in phosphate buffered saline (10 mM sodium phosphate, 0.9% NaCl, pH 7.4; PBS), for 20 minutes at room temperature. […] After overnight incubation at 4° C. with antibodies diluted to 0.1-1 μg/ml (according to the manufacturer's recommendations), immunoreactivity was detected using rat tissue-pre-adsorbed biotinylated secondary antibodies, avidin biotin horseradish peroxidase complex (ABC) reagents, and diaminobenzidine as the chromogen (Vector Laboratories, Burlingame, Calif.). de la Monte et al., Lab. Invest. 80:1323 (2000). The sections were counterstained with hematoxylin and preserved with mounting medium and coverglass. All sections were examined under code.

insulin receptor = assay type: in vivo, Long Evans rat; details: temporal lobe membrane extracts
Method: (§1) Membrane proteins were extracted from fresh frozen temporal lobe tissue (˜100 mg) by Polytron (Glen Mils Inc., Clifton, N.J.) homogenization in 5 volumes of NP-40 lysis buffer (50 mM Tris-HCl, pH 7.5, 150 mM NaCl, 1 mM EDTA, 2 mM EGTA, 1% NP-40) containing protease (1 mM PMSF, 0.1 mM TPCK, 1 μg/ml aprotinin, 1 μg/ml pepstatin A, 0.5 μg/ml leupeptin, 1 mM NaF, 1 mM Na4P2O7) and phosphatase (2 mM Na3VO4) inhibitors. The supernatant fractions obtained after centrifuging the samples at 10,000×g for 15 minutes at 4° C. were used in the binding assays. […] Protein concentrations were measured with the bicinchoninic acid (BCA) assay (Pierce, Rockford, Ill.).
(§2) Competitive equilibrium binding assays were used to assess growth factor binding in relation to ic-STZ-treatment. […]
(§3) All reactions were performed in 1.5 ml Eppendorff tubes, and the incubations were performed at 4° C. for 16 hours with gentle platform agitation. […] Each sample was counted for 1 minute in an LKB CompuGamma CS Gamma counter. Specific binding was calculated by subtracting fmols of non-specific binding, i.e. amount bound in the presence of excess cold ligand, from total fmols bound (absence of unlabeled competitive ligand). The binding assay results were analyzed using the GraphPad Prism 4 software (GraphPad Software, Inc., San Diego, Calif.).

IGF-I receptor = assay type: in vivo, Long Evans rat; details: temporal lobe membrane extracts
Method: as §1, §2, §3

[2] = tested on: GFAP, GSK-3β, phospho-GSK-3β, ubiquitin, tau, phospho-tau, β-actin; assay: ic-STZ model: Western blot analysis of temporal lobe tissue; assay type: in vivo, Long Evans rat; details: 40 mg/kg ic-STZ, Mean±S.E.M.
Method: Western blot analysis was used to assess the levels of Akt, phospho-Akt, GSK-3β, phospho-GSK-3β, Tau, and β-actin. […] Protein concentration was determined using the bicinchoninic acid (BCA) assay (Pierce, Rockford, Ill.). Samples containing 100 μg of protein were fractionated by sodium dodecyl sulfate, polyacrylamide gel electrophoresis (SDS-PAGE). (Ausubel et al., Current Protocols in Molecular Biology (2000)). Proteins were transferred to Immobilon-P (Millipore Corporation, Bedford, Mass.) PVDF membranes and non-specific binding sites were adsorbed with SuperBlock-TBS (Pierce, Rockford, Ill.). Membranes were incubated over night at 4° C. with primary antibody (0.5-1 μg/ml) diluted in Tris-buffered saline (TBS; 50 mM Tris, 150 mM NaCl, pH 7.4) containing 1% bovine serum albumin and 0.05% Tween-20 (TBST-BSA). Immunoreactivity was detected using horseradish peroxidase (HRP) conjugated IgG (Pierce, Rockford, Ill.), Western Lightning chemiluminescence reagents (Perkin Elmer Life Sciences Inc., Boston, Mass.), and film autoradiography. All incubations were performed using gentle platform agitation. Immunoreactivity was quantified using the Kodak Digital Science Imaging Station (NEN Life Sciences, Boston, Mass.).
Western blot analysis was used to assess the levels of tau, phospho-tau, ubiquitin, GSK-3β, phospho-GSK-3β, GFAP, and β-actin as described above.
Studies were performed to determine if ic-STZ-induced neurodegeneration was associated with increased activation of GSK-3β (reduced phospho-GSK-3β/total GSK-3β ratio) and increased levels of phospho-tau. Since characteristic features of AD-type neurodegeneration also include increased ubiquitination of proteins, including tau (Godbolt et al., Arch. Neurol. 62:1097 (2005); Kosik et al., Biochim. Biophys. Acta 1739:298 (2005); de Vrij et al., Prog. Neurobiol. 74:249 (2004)) and gliosis associated with cell loss, Western blot analysis was used to measure ubiquitin and GFAP immunoreactivity as well. β-actin expression was measured as a […].
Values correspond to arbitrary densitometry units (Mean±S.E.M.). Results were analyzed using Student t-tests.

[3] = tested on: cerebral cortex and hippocampus glucose and glycogen metabolism; details: adult rats, intracerebroventricular injection; cited from earlier work

CN(N=O)C(=O)NC1C(O)OC(CO)C(O)C1O (stereo not shown) [STZ]
hemorrhage in brain ([1]; 40 mg/kg ic-STZ): multiple small foci of acute subarachnoid hemorrhage | insulin immunoreactivity in pancreatic islets ([1]; 40 mg/kg ic-STZ): prominent insulin immunoreactivity in all pancreatic islets | pancreas histopathology ([1]; 40 mg/kg ic-STZ): no evidence of inflammation, necrosis, or islet cell degeneration | size of cerebral and cerebellar hemispheres ([1]; 40 mg/kg ic-STZ): conspicuously reduced in size | mean blood glucose level vs control ([1]; 40 mg/kg ic-STZ, day 14): significantly lower than control | mean body weight vs control ([1]; 40 mg/kg ic-STZ, day 14): significantly reduced | mean brain weight vs control ([1]; 40 mg/kg ic-STZ, day 14): significantly reduced relative to control | random blood glucose concentration (none of the rats above) ([1]; 40 mg/kg ic-STZ, day 14): ≤ 180 mg/dL | survival of the injections ([1]; 3-day-old pups, bilateral ic injection): All animals survived | reduction of mean equilibrium binding to the insulin receptor vs control (insulin receptor): approximately 85% | IGF-I binding vs control (IGF-I receptor): increased, although the difference was not statistically significant | GFAP protein (Western blot) [2]: 983591 ± 113549 arbitrary densitometry units | GSK-3β protein (Western blot) [2]: 149945 ± 15588 arbitrary densitometry units | Tau protein (Western blot) [2]: 686442 ± 65138 arbitrary densitometry units | Ubiquitin protein (Western blot) [2]: 1390824 ± 133586 arbitrary densitometry units | p-GSK-3β protein (Western blot) [2]: 2811 ± 296 arbitrary densitometry units | p-Tau protein (Western blot) [2]: 3378 ± 920 arbitrary densitometry units | β-Actin protein (Western blot, negative control) [2]: 196548 ± 14314 arbitrary densitometry units | chronic reduction in glucose and glycogen metabolism [3]: 10-30%
